Format in all cases: in vivo
For test [1], the system named is Echinochloa crus-galli (ECHCG). As to the kind of experiment: Post-emergence biological efficacy (percentage damage). To be noted: Echinochloa crus-galli, 312 h, evaluated after 13 days, 100=total damage, 0=no damage; for pest or weed control at 1000 g/ha: dose 1,000 g/ha. As for the experimental part: (§1) Seeds of Alopecurus myosuroides (ALOMY), Setaria faberi (SETFA), Echinochloa crus-galli (ECHCG), Solanum nigrum (SOLNI), Amaranthus retoflexus (AMARE) and Ipomea hederaceae (IPOHE) were sown in standard soil in pots. After cultivation for 8 days under controlled conditions in a glasshouse (at 24/16° C., day/night; 14 hours light; 65% humidity), the plants were sprayed with an aqueous spray solution derived from the formulation of the technical active ingredient in acetone/water (50:50) solution containing 0.5% Tween 20 (polyoxyethylene sorbitan monolaurate, CAS RN 9005-64-5) to give a final dose of 250 or 1000 g/ha of test compound. The test plants were then grown on under controlled conditions in a glasshouse (at 24/16° C., day/night; 14 hours light; 65% humidity) and watered twice daily. After 13 days the test was evaluated (100=total damage to plant; 0=no damage to plant).

For test [2], the system named is Alopecurus myosuroides (ALOMY). The test is described as above. To be noted: Alopecurus myosuroides, 312 h, evaluated after 13 days, 100=total damage, 0=no damage; for pest or weed control at 1000 g/ha: dose 1,000 g/ha. The method, then: as §1
Test [3] relates to Solanum nigrum (SOLNI). The test is described as above. To be noted: Solanum nigrum, 312 h, evaluated after 13 days, 100=total damage, 0=no damage; for pest or weed control at 1000 g/ha: dose 1,000 g/ha. The method, then: as §1
Test [4] concerns Ipomea hederaceae (IPOHE). The description is as above. To be noted: Ipomoea hederacea, 312 h, evaluated after 13 days, 100=total damage, 0=no damage; for pest or weed control at 1000 g/ha: dose 1,000 g/ha. The method, then: as §1
The test system of test [5] is Setaria faberi (SETFA). The description is as above. The settings on record: Setaria faberi, 312 h, evaluated after 13 days, 100=total damage, 0=no damage; for pest or weed control at 1000 g/ha: dose 1,000 g/ha. As for the experimental part: as §1
The test system of test [6] is Amaranthus retoflexus (AMARE). Described as above. To be noted: Amaranthus retroflexus, 312 h, evaluated after 13 days, 100=total damage, 0=no damage; for pest or weed control at 1000 g/ha: dose 1,000 g/ha. As for the experimental part:
as §1

For test [7], the system named is Echinochloa crus-galli (ECHCG). As to the kind of experiment: Pre-emergence biological efficacy (percentage damage). The settings on record: Echinochloa crus-galli, 312 h, evaluated after 13 days, 100=total damage, 0=no damage; for pest or weed control at 1000 g/ha: dose 1,000 g/ha. The method, then: (§2) Seeds of Alopecurus myosuroides (ALOMY), Setaria faberi (SETFA), Echinochloa crus-galli (ECHCG), Solanum nigrum (SOLNI), Amaranthus retoflexus (AMARE) and Ipomea hederaceae (IPOHE) were sown in standard soil in pots. After cultivation for one day under controlled conditions in a glasshouse (at 24/16° C., day/night; 14 hours light; 65% humidity), the plants were sprayed with an aqueous spray solution derived from the formulation of the technical active ingredient in acetone/water (50:50) solution containing 0.5% Tween 20 (polyoxyethylene sorbitan monolaurate, CAS RN 9005-64-5) to give a final dose of 250 or 1000 g/ha of test compound. The test plants were then grown under controlled conditions in the glasshouse (at 24/16° C., day/night; 14 hours light; 65% humidity) and watered twice daily. After 13 days the test was evaluated (100=total damage to plant; 0=no damage to plant).

Test [8] has as its system Alopecurus myosuroides (ALOMY). Described as above. To be noted: Alopecurus myosuroides, 312 h, evaluated after 13 days, 100=total damage, 0=no damage; for pest or weed control at 1000 g/ha: dose 1,000 g/ha. The method, then:
as §2

Test [9] deals with Solanum nigrum (SOLNI). The description is as above. To be noted: Solanum nigrum, 312 h, evaluated after 13 days, 100=total damage, 0=no damage; for pest or weed control at 1000 g/ha: dose 1,000 g/ha. The method, then: as §2
In test [10] the test system is Ipomea hederaceae (IPOHE). Described as above. The settings on record: Ipomoea hederacea, 312 h, evaluated after 13 days, 100=total damage, 0=no damage; for pest or weed control at 1000 g/ha: dose 1,000 g/ha. As for the experimental part:
as §2

Test [11] deals with Setaria faberi (SETFA). The description is as above. The settings on record: Setaria faberi, 312 h, evaluated after 13 days, 100=total damage, 0=no damage; for pest or weed control at 1000 g/ha: dose 1,000 g/ha. The method, then: as §2
In test [12] the test system is Amaranthus retoflexus (AMARE). The description is as above. The settings on record: Amaranthus retroflexus, 312 h, evaluated after 13 days, 100=total damage, 0=no damage; for pest or weed control at 1000 g/ha: dose 1,000 g/ha. As for the experimental part: as §2

Each structure is given as a SMILES string.

One may read the pest or weed control as the degree to which the test organism was suppressed or injured, in per cent. In the case of `C=Cc1c(N)nc(-c2ccc(SC)cc2)nc1C(=O)OC` [Compound 72-61, 4-Amino-5-ethenyl-6-methoxycarbonyl-2-(4-methylthiophenyl)-pyrimidine], the pest or weed control at 1000 g/ha in test [1] was 0%; in [2] it was 10%; with Solanum nigrum (SOLNI) [3] it was 60%; in test [4], 50%; in the test with Setaria faberi (SETFA) [5], 0%; in test [6], 10%. The pest or weed control at 1000 g/ha in test [7] came to 0%; in test [8], 0%; with Solanum nigrum (SOLNI) [9], 50%; in test [10] it was 70%; in the test on Setaria faberi (SETFA) [11] it was 0%; in test [12] it was 60%.
As to `C=Cc1c(N)nc(-c2ccc(F)c(F)c2)nc1C(=O)OC` [Compound 67-61, 4-Amino-2-(3,4-difluorophenyl)-5-ethenyl-6-methoxycarbonyl-pyrimidine], the pest or weed control at 1000 g/ha in test [1] is 40%; in [2] it was 20%; in the test with Solanum nigrum (SOLNI) [3], 90%; in [4], 60%; in the test with Setaria faberi (SETFA) [5] it was 10%; in test [6], 100%. Moreover, the pest or weed control at 1000 g/ha in test [7] was found to be 30%; in test [8], 30%; in the test on Solanum nigrum (SOLNI) [9] it was 70%; in [10], 50%; in the test with Setaria faberi (SETFA) [11], 30%; in test [12], 100%.
Take `CCC/C=C/c1c(N)nc(C2CC2)nc1C(=O)OC` [Compound 2-65, 4-Amino-2-cyclopropyl-6-methoxycarbonyl-5-(pent-1-enyl)-pyrimidine]: the pest or weed control at 250 g/ha in [1] amounted to 0%; in test [2], 0%; in the test with Solanum nigrum (SOLNI) [3], 40%; in test [4], 40%; in the test with Setaria faberi (SETFA) [5] it was 0%; in test [6], 20%. In addition, the pest or weed control at 250 g/ha (in [7]; in test [8]; in the test with Solanum nigrum (SOLNI) [9]; in [10]; in the test on Setaria faberi (SETFA) [11]; in test [12]) was 0% each time.
In the case of `C=Cc1c(N)nc(-c2ccc(Cl)c(N(C)C)c2F)nc1C(=O)OCC(CC)CCCC` (stereo not drawn) [Compound 33-393, 4-Amino-2-(4-chloro-3-dimethylamino-2-fluorophenyl)-5-ethenyl-6-(2-ethylhexyloxy) carbonyl-pyrimidine], the pest or weed control at 1000 g/ha in test [1] is 20%; in [2], 0%; in the test on Solanum nigrum (SOLNI) [3], 70%; in [4], 70%; with Setaria faberi (SETFA) [5], 0%; in test [6] it was 70%. For the same molecule, the pest or weed control at 1000 g/ha in test [7] came out at 0%; in test [8], 0%; in the test on Solanum nigrum (SOLNI) [9] it was 20%; in [10] it was 0%; in the test on Setaria faberi (SETFA) [11] it was 0%; in [12] it was 20%.
`C=Cc1c(N)nc(SC)nc1C(=O)OC` [Compound 62-61, 4-amino-5-ethenyl-6-methoxycarbonyl-2-methylthiopyrimidine]: the pest or weed control at 1000 g/ha in [1] was determined as 0%; in test [2], 0%; in the test on Solanum nigrum (SOLNI) [3] it was 90%; in [4], 90%; in the test on Setaria faberi (SETFA) [5], 10%; in [6], 100%. In addition, the pest or weed control at 1000 g/ha is 0% in test [7]; 0% in test [8]; 100% in the test with Solanum nigrum (SOLNI) [9]; 100% in [10]; 0% with Setaria faberi (SETFA) [11]; 100% in test [12].
In the case of `C=Cc1c(N)nc(-c2ccc(Cl)c(N(C)C)c2F)nc1C(=O)OC` [Compound 33-61], the pest or weed control at 1000 g/ha was 20% in test [1]; 20% in test [2]; 80% with Solanum nigrum (SOLNI) [3]; 90% in test [4]; 30% with Setaria faberi (SETFA) [5]; 70% in [6]. Moreover, the pest or weed control at 1000 g/ha amounted to 0% in test [7]; 0% in test [8]; 30% in the test on Solanum nigrum (SOLNI) [9]; 40% in [10]; 10% in the test on Setaria faberi (SETFA) [11]; 50% in test [12].
In the case of `CC(O)c1c(N)nc(-c2ccc(C(F)(F)F)cc2)nc1CO` (stereo not drawn) [Compound 31-372, 4-amino-5-(1-hydroxyethyl)-6-hydroxymethyl-2-(4-trifluoromethylphenyl)-pyrimidine], the pest or weed control at 1000 g/ha in test [1] was determined as 10%; in test [2], 10%; in the test on Solanum nigrum (SOLNI) [3], 30%; in test [4], 30%; in the test with Setaria faberi (SETFA) [5], 30%; in test [6], 20%. Also, the pest or weed control at 1000 g/ha (in test [7]; in test [8]; in the test on Solanum nigrum (SOLNI) [9]; in test [10]; in the test with Setaria faberi (SETFA) [11]; in [12]) was 0% in each case.
For the molecule `C=Cc1c(N)nc(C2CC2)nc1C(=O)OC` [Compound 2-61, 4-Amino-2-cyclopropyl-5-ethenyl-6-methoxycarbonyl-pyrimidine], the pest or weed control at 1000 g/ha in test [1] stood at 60%; in [2] it was 40%; in the test on Solanum nigrum (SOLNI) [3], 100%; in test [4] it was 100%; with Setaria faberi (SETFA) [5] it was 80%; in [6], 100%. Moreover, the pest or weed control at 1000 g/ha was determined as 80% in test [7]; 40% in test [8]; 100% in the test with Solanum nigrum (SOLNI) [9]; 100% in test [10]; 20% in the test on Setaria faberi (SETFA) [11]; 100% in test [12].
Turning to `COC(=O)c1nc(C2CC2)nc(N)c1C#CC(C)(C)C` [Compound 2-77, 4-Amino-2-cyclopropyl-5-(3,3-dimethylbut-1-ynyl)-6-methoxycarbonyl-pyrimidine], the pest or weed control at 250 g/ha came out at 0% in [1]; 0% in test [2]; 40% with Solanum nigrum (SOLNI) [3]; 70% in [4]; 0% with Setaria faberi (SETFA) [5]; 30% in test [6]. For the same molecule, the pest or weed control at 250 g/ha (in test [7]; in test [8]; in the test with Solanum nigrum (SOLNI) [9]; in test [10]; in the test with Setaria faberi (SETFA) [11]; in test [12]) was 0% each time.
